{
  "source": "ChEMBL document CHEMBL1201862",
  "about": "“PubChem BioAssay data set” (2004)",
  "experiment_in_all_cases": "growth of human tumour cells (NCI), 48 h",
  "key": {"786-0": {"tested_on": "786-0"}, "A498": {"tested_on": "A498"}, "A549": {"tested_on": "A549"}, "ACHN": {"tested_on": "ACHN"}, "CAKI-1": {"tested_on": "CAKI-1"}, "CCRF-CEM": {"tested_on": "CCRF-CEM"}, "COLO 205": {"tested_on": "COLO 205"}, "DLD-1": {"tested_on": "DLD-1"}, "DMS-114": {"tested_on": "DMS-114"}, "DMS-273": {"tested_on": "DMS-273"}, "EKVX": {"tested_on": "EKVX"}, "HCC 2998": {"tested_on": "HCC 2998"}, "HCT-116": {"tested_on": "HCT-116"}, "HCT-15": {"tested_on": "HCT-15"}, "HL-60": {"tested_on": "HL-60"}, "HOP-18": {"tested_on": "HOP-18"}, "HOP-62": {"tested_on": "HOP-62"}, "HOP-92": {"tested_on": "HOP-92"}, "HT-29": {"tested_on": "HT-29"}, "IGROV-1": {"tested_on": "IGROV-1"}, "K562": {"tested_on": "K562"}, "KM-20L2": {"tested_on": "KM-20L2"}, "KM12": {"tested_on": "KM12"}, "LOX IMVI": {"tested_on": "LOX IMVI"}, "LXFL 529": {"tested_on": "LXFL 529"}, "M14": {"tested_on": "M14"}, "M19-MEL": {"tested_on": "M19-MEL"}, "MOLT-4": {"tested_on": "MOLT-4"}, "Malme-3M": {"tested_on": "Malme-3M"}, "NCI-H226": {"tested_on": "NCI-H226"}, "NCI-H23": {"tested_on": "NCI-H23"}, "NCI-H460": {"tested_on": "NCI-H460"}, "NCI-H522": {"tested_on": "NCI-H522"}, "OVCAR-3": {"tested_on": "OVCAR-3"}, "OVCAR-4": {"tested_on": "OVCAR-4"}, "OVCAR-5": {"tested_on": "OVCAR-5"}, "OVCAR-8": {"tested_on": "OVCAR-8"}, "RPMI-8226": {"tested_on": "RPMI-8226"}, "RXF 393": {"tested_on": "RXF 393"}, "SF-268": {"tested_on": "SF-268"}, "SF-295": {"tested_on": "SF-295"}, "SF-539": {"tested_on": "SF-539"}, "SK-MEL-28": {"tested_on": "SK-MEL-28"}, "SK-MEL-2": {"tested_on": "SK-MEL-2"}, "SK-MEL-5": {"tested_on": "SK-MEL-5"}, "SK-OV-3": {"tested_on": "SK-OV-3"}, "SN12C": {"tested_on": "SN12C"}, "SNB-19": {"tested_on": "SNB-19"}, "SNB-75": {"tested_on": "SNB-75"}, "SNB-78": {"tested_on": "SNB-78"}, "SR": {"tested_on": "SR"}, "SW-620": {"tested_on": "SW-620"}, "TK-10": {"tested_on": "TK-10"}, "U-251": {"tested_on": "U-251"}, "UACC-257": {"tested_on": "UACC-257"}, "UO-31": {"tested_on": "UO-31"}, "XF498": {"tested_on": "XF498"}},
  "note": "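Values below derive from 48-hour exposures of cells grown in 96-well plates, with endpoints linearly interpolated between the two concentrations bracketing the appropriate inhibition level. GI50 marks 50% less growth.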 Calls of active or inactive are those of the source. Cut-off read from the data, not from the text of the source: active = GI50 up to about 1.1 µM and inactive = higher.",
  "data": [
    {"smiles": "Cc1c2ccncc2c(C)c2c1[nH]c1ccc(OC(C)C)cc12", "values": [
      {"measurement": "GI50", "setting": "786-0", "value": "1.19 µM (inactive)"},
      {"measurement": "GI50", "setting": "A498", "value": "1.47 µM (inactive)"},
      {"measurement": "GI50", "setting": "A549", "value": "1.52 µM (inactive)"},
      {"measurement": "GI50", "setting": "ACHN", "value": "1.29 µM (inactive)"},
      {"measurement": "GI50", "setting": "CAKI-1", "value": "1.6 µM (inactive)"},
      {"measurement": "GI50", "setting": "CCRF-CEM", "value": "1.15 µM (inactive)"},
      {"measurement": "GI50", "setting": "COLO 205", "value": "1.32 µM (inactive)"},
      {"measurement": "GI50", "setting": "DLD-1", "value": "1.35 µM (inactive)"},
      {"measurement": "GI50", "setting": "DMS-114", "value": "1.49 µM (inactive)"},
      {"measurement": "GI50", "setting": "DMS-273", "value": "0.681 µM (active)"},
      {"measurement": "GI50", "setting": "EKVX", "value": "1.4 µM (inactive)"},
      {"measurement": "GI50", "setting": "HCC 2998", "value": "2.03 µM (inactive)"},
      {"measurement": "GI50", "setting": "HCT-116", "value": "0.736 µM (active)"},
      {"measurement": "GI50", "setting": "HCT-15", "value": 0.984, "unit": "µM"},
      {"measurement": "GI50", "setting": "HL-60", "value": "1.84 µM (inactive)"},
      {"measurement": "GI50", "setting": "HOP-18", "value": "0.318 µM (active)"},
      {"measurement": "GI50", "setting": "HOP-62", "value": "1.35 µM (inactive)"},
      {"measurement": "GI50", "setting": "HOP-92", "value": "1.51 µM (inactive)"},
      {"measurement": "GI50", "setting": "HT-29", "value": "1.32 µM (inactive)"},
      {"measurement": "GI50", "setting": "IGROV-1", "value": "1.43 µM (inactive)"},
      {"measurement": "GI50", "setting": "K562", "value": "1.13 µM (inactive)"},
      {"measurement": "GI50", "setting": "KM-20L2", "value": "1.18 µM (inactive)"},
      {"measurement": "GI50", "setting": "KM12", "value": "1.35 µM (inactive)"},
      {"measurement": "GI50", "setting": "LOX IMVI", "value": "1.18 µM (inactive)"},
      {"measurement": "GI50", "setting": "LXFL 529", "value": "0.787 µM (active)"},
      {"measurement": "GI50", "setting": "M14", "value": "1.6 µM (inactive)"},
      {"measurement": "GI50", "setting": "M19-MEL", "value": "1.71 µM (inactive)"},
      {"measurement": "GI50", "setting": "MOLT-4", "value": "0.59 µM (active)"},
      {"measurement": "GI50", "setting": "Malme-3M", "value": "1.58 µM (inactive)"},
      {"measurement": "GI50", "setting": "NCI-H226", "value": "1.63 µM (inactive)"},
      {"measurement": "GI50", "setting": "NCI-H23", "value": "1.53 µM (inactive)"},
      {"measurement": "GI50", "setting": "NCI-H460", "value": "1.03 µM (active)"},
      {"measurement": "GI50", "setting": "NCI-H522", "value": "1.63 µM (inactive)"},
      {"measurement": "GI50", "setting": "OVCAR-3", "value": "1.61 µM (inactive)"},
      {"measurement": "GI50", "setting": "OVCAR-4", "value": "1.71 µM (inactive)"},
      {"measurement": "GI50", "setting": "OVCAR-5", "value": "1.48 µM (inactive)"},
      {"measurement": "GI50", "setting": "OVCAR-8", "value": "1.04 µM (active)"},
      {"measurement": "GI50", "setting": "RPMI-8226", "value": "1.99 µM (inactive)"},
      {"measurement": "GI50", "setting": "RXF 393", "value": "1.33 µM (inactive)"},
      {"measurement": "GI50", "setting": "SF-268", "value": "1.43 µM (inactive)"},
      {"measurement": "GI50", "setting": "SF-295", "value": "1.36 µM (inactive)"},
      {"measurement": "GI50", "setting": "SF-539", "value": "1.82 µM (inactive)"},
      {"measurement": "GI50", "setting": "SK-MEL-28", "value": "1.66 µM (inactive)"},
      {"measurement": "GI50", "setting": "SK-MEL-2", "value": "1.58 µM (inactive)"},
      {"measurement": "GI50", "setting": "SK-MEL-5", "value": "1.77 µM (inactive)"},
      {"measurement": "GI50", "setting": "SK-OV-3", "value": "1.42 µM (inactive)"},
      {"measurement": "GI50", "setting": "SN12C", "value": "1.06 µM (active)"},
      {"measurement": "GI50", "setting": "SNB-19", "value": "1.59 µM (inactive)"},
      {"measurement": "GI50", "setting": "SNB-75", "value": "1.83 µM (inactive)"},
      {"measurement": "GI50", "setting": "SNB-78", "value": "2.89 µM (inactive)"},
      {"measurement": "GI50", "setting": "SR", "value": "0.668 µM (active)"},
      {"measurement": "GI50", "setting": "SW-620", "value": "0.547 µM (active)"},
      {"measurement": "GI50", "setting": "TK-10", "value": "1.91 µM (inactive)"},
      {"measurement": "GI50", "setting": "U-251", "value": "1.38 µM (inactive)"},
      {"measurement": "GI50", "setting": "UACC-257", "value": "1.82 µM (inactive)"},
      {"measurement": "GI50", "setting": "UO-31", "value": "1.53 µM (inactive)"},
      {"measurement": "GI50", "setting": "XF498", "value": "1.52 µM (inactive)"}
    ]}
  ]
}
